Results from US5861414A, “Piperidineacetic acid derivatives useful as fibrinogen antagonist agent” (priority 1994, dated 1999).
Where a name gives a salt, the structure may show the parent alone. Read-outs that look alike come from different tables or passages of the source.

Test system: human washed and resuspended platelets (HRP)
Assay: Inhibition of U-46619-induced platelet aggregation in washed human platelets (turbidometric, Born-type aggregometer)
Type: cell-based
Settings: read-out: IC50, concentration of the compound required to inhibit platelet aggregation by 50%
Description: Inhibition of platelet aggregation by compounds of the invention was determined according to the following procedure. […] The blood was treated with aspirin (0.1 mM) and prostacyclin (0.06 μM) prior to centrifugation (1400 g, 4 minutes, 20° C.). The supernatant platelet-rich plasma (PRP) was isolated and further centrifuged (1400 g, 10 minutes, 20° C.) to sediment the platelets. […] This platelet suspension was centrifuged (1400 g, 8 minutes, 20° C.) and the resultant platelet pellet was resuspended into the physiological salt solution adjusted to pH 7.4. The resultant washed-platelet preparation was diluted to give a final platelet count of […]. […] Platelet aggregation was quantified using a turbidometric method.

[1] = Homo sapiens, Platelet, washed human platelets, 37° C, 5 minutes pre-incubation, agonist 1 μM U-46619, fibrinogen 0.5 mg/ml

Row | IC50 [1] | SMILES | further results
1 | – | O=C(O)CN1CCC(c2nn(Cc3ccc(F)cc3)c3cc(/C=C/C4CCNCC4)ccc23)CC1 [6 (ii), {4-[1-(4-Fluoro-benzyl)-6-(2-piperidin-4-yl-(E)-vinyl)-1H-indazol-3-yl]-piperidin-1-yl}-acetic acid hydrochloride] | IC50 (washed human platelets, 37° C, 5 minutes pre-incubation, agonist 1 μM U-46619, fibrinogen 0.5 mg/ml, hydrochloride): 110 nM
2 | 80 nM | O=C(O)CN1CCC(c2nn(Cc3ccc(Cl)cc3)c3cc(CCC4CCNCC4)ccc23)CC1 [5 (iii), {4-[1-(4-Chloro-benzyl)-6-(2piperidin-4-yl-ethyl)-1H-indazol-3-yl-piperidin-1-yl}-acetic acid trifluoroacetate] | –
3 | 72 nM | O=C(O)CN1CCC(c2nn(Cc3ccc(Cl)cc3)c3cc(/C=C/C4CCNCC4)ccc23)CC1 [4 (ii), (4-{1-(4-Chloro-benzyl)-6-[2-piperidin-4-yl-(E)-vinyl]-1H-indazol-3-yl}-piperidin-1-yl)-acetic acid trifluoroacetate] | –
4 | 107 nM | O=C(O)CN1CCC(c2nn(Cc3ccccc3)c3cc(/C=C/C4CCNCC4)ccc23)CC1 [7 (ii), {4-[1-Benzyl-6-(2-piperidin-4-yl-(E)-vinyl)-1H-indazol-3-yl]-piperidin-1-yl}-acetic acid trifluoroacetate] | –
5 | 74 nM | O=C(O)CN1CCC(c2nn(Cc3ccc(Cl)c(Cl)c3)c3cc(/C=C/C4CCNCC4)ccc23)CC1 [3 (ii), {4-[1-(3,4-Dichloro-benzyl)-6-(2-piperidin-4-yl-(E)-vinyl)-1H-indazol-3-yl]-piperidin-1-yl}-acetic acid trifluoroacetate] | –
6 | – | O=C(O)CN1CCC(c2n[nH]c3cc(/C=C/C4CCNCC4)ccc23)CC1 [2 (iv), {4-[6-(2-Piperidin-4-yl-(E)-vinyl)-1H-indazol-3-yl]-piperidin-1-yl}-aceticacid, hydrochloride hydrate] | IC50 (Homo sapiens, Platelet): 67 nM
7 | 126 nM | O=C(O)CN1CCC(c2nn(Cc3ccc(F)cc3)c3cc(/C=C/C4CCNCC4)ccc23)CC1 [1 (xiii), {4-[1-(4-Fluoro-benzyl)-6-(2-piperidin-4-yl-(E)-vinyl)-1H-indazol-3-yl]-piperidin-1-yl}-acetic acid trifluoroacetate] | –

Row | SMILES | IC50 [1] | further results
8 | O=C(O)CN1CCC(c2n[nH]c3cc(/C=C/C4CCNCC4)ccc23)CC1 [2 (ii), {4-[6-(2-Piperidin-4-yl-(E)-vinyl)-1H-indazol-3-yl]-piperidin-1-yl}-aceticacid trifluoroacetate] | 92 nM | –
